Experimental findings from patent publication US9222928B2, “Biphenol ether compounds as markers for liquid hydrocarbons and other fuels and oils” (Dow Global Technologies LLC, priority 2011, dated 2015) are described below.

A word on the melting point: it is the temperature, or range, at which the solid turns liquid.

The structures appear in SMILES notation.

For the compound `CCCCCCCCCCCCOc1ccccc1-c1ccccc1OCCCCCCCCCCCC` [BDD-BBPh, 2,2′-Bis(dodecyloxy)-1,1′-biphenyl], the melting point lay in the range of 33 to 35 °C.
